Test results taken from patent US8192962B2, “Processes for detecting toxic substances” (Daikin Industries, Ltd., priority 2001, dated 2012).

Tested on: Mitochondria-located protein genes
Experiment: DNA chip mRNA expression in yeast, mitochondria-located protein genes (Table 2)
Format: cell-based, Saccharomyces cerevisiae S288C
Settings: cells incubated two hours with the chemical substance
Outline: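 Cells were grown at 25° C. in YPD, treated at logarithmic phase for 2 h with a chemical at a concentration inhibiting growth but not causing death, and compared with untreated cultures. Labeled cDNA was hybridized to a DNA chip carrying all yeast genes, and the expression ratio was taken from scanner fluorescence.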

With `[Cl][Hg][Cl]` [(3), HgCl2] the “The level of expressed mRNA in the presence of chemical substance/The level of expressed mRNA in the absence of chemical substance” value (yeast gene YAL039C) was 1.7, the “The level of expressed mRNA in the presence of chemical substance/The level of expressed mRNA in the absence of chemical substance” value (yeast gene YBL022C) was 1.2 and the “The level of expressed mRNA in the presence of chemical substance/The level of expressed mRNA in the absence of chemical substance” value (yeast gene YBL030C) was 4.5. The “The level of expressed mRNA in the presence of chemical substance/The level of expressed mRNA in the absence of chemical substance” value (yeast gene YBL038W) was 0.5, the “The level of expressed mRNA in the presence of chemical substance/The level of expressed mRNA in the absence of chemical substance” value (yeast gene YBL099W) was 3.1 and the “The level of expressed mRNA in the presence of chemical substance/The level of expressed mRNA in the absence of chemical substance” value (yeast gene YBR003W) was 1.0. The “The level of expressed mRNA in the presence of chemical substance/The level of expressed mRNA in the absence of chemical substance” value (yeast gene YBR044C) was 0.7, the “The level of expressed mRNA in the presence of chemical substance/The level of expressed mRNA in the absence of chemical substance” value (yeast gene YBR091C) was 0.6 and the “The level of expressed mRNA in the presence of chemical substance/The level of expressed mRNA in the absence of chemical substance” value (yeast gene YBR122C) was 0.3. The “The level of expressed mRNA in the presence of chemical substance/The level of expressed mRNA in the absence of chemical substance” value (yeast gene YBR185C) was 1.3, the “The level of expressed mRNA in the presence of chemical substance/The level of expressed mRNA in the absence of chemical substance” value (yeast gene YBR221C) was 3.2 and the “The level of expressed mRNA in the presence of chemical substance/The level of expressed mRNA in the absence of chemical substance” value (yeast gene YBR251W) was 1.0. For the same compound, the “The level of expressed mRNA in the presence of chemical substance/The level of expressed mRNA in the absence of chemical substance” value (yeast gene YBR282W) was 0.5, the “The level of expressed mRNA in the presence of chemical substance/The level of expressed mRNA in the absence of chemical substance” value (yeast gene YCL057W) was 2.3 and the “The level of expressed mRNA in the presence of chemical substance/The level of expressed mRNA in the absence of chemical substance” value (yeast gene YCR046C) was 1.2. The “The level of expressed mRNA in the presence of chemical substance/The level of expressed mRNA in the absence of chemical substance” value (yeast gene YCR083W) was 1.5, the “The level of expressed mRNA in the presence of chemical substance/The level of expressed mRNA in the absence of chemical substance” value (yeast gene YDL067C) was 1.6 and the “The level of expressed mRNA in the presence of chemical substance/The level of expressed mRNA in the absence of chemical substance” value (yeast gene YDL181W) was 1.9. The “The level of expressed mRNA in the presence of chemical substance/The level of expressed mRNA in the absence of chemical substance” value (yeast gene YDL198C) was 2.1, the “The level of expressed mRNA in the presence of chemical substance/The level of expressed mRNA in the absence of chemical substance” value (yeast gene YDR079W) was 0.8 and the “The level of expressed mRNA in the presence of chemical substance/The level of expressed mRNA in the absence of chemical substance” value (yeast gene YDR178W) was 3.4. For the same compound, the “The level of expressed mRNA in the presence of chemical substance/The level of expressed mRNA in the absence of chemical substance” value (yeast gene YDR231C) was 1.0, the “The level of expressed mRNA in the presence of chemical substance/The level of expressed mRNA in the absence of chemical substance” value (yeast gene YDR258C) was 2.8 and the “The level of expressed mRNA in the presence of chemical substance/The level of expressed mRNA in the absence of chemical substance” value (yeast gene YDR298C) was 2.6. For the same compound, the “The level of expressed mRNA in the presence of chemical substance/The level of expressed mRNA in the absence of chemical substance” value (yeast gene YDR347W) was 0.9, the “The level of expressed mRNA in the presence of chemical substance/The level of expressed mRNA in the absence of chemical substance” value (yeast gene YDR377W) was 1.3 and the “The level of expressed mRNA in the presence of chemical substance/The level of expressed mRNA in the absence of chemical substance” value (yeast gene YDR529C) was 0.9. The “The level of expressed mRNA in the presence of chemical substance/The level of expressed mRNA in the absence of chemical substance” value (yeast gene YEL024W) was 3.8, the “The level of expressed mRNA in the presence of chemical substance/The level of expressed mRNA in the absence of chemical substance” value (yeast gene YEL039C) was 1.3 and the “The level of expressed mRNA in the presence of chemical substance/The level of expressed mRNA in the absence of chemical substance” value (yeast gene YER178W) was 3.6. The “The level of expressed mRNA in the presence of chemical substance/The level of expressed mRNA in the absence of chemical substance” value (yeast gene YFL016C) was 1.6, the “The level of expressed mRNA in the presence of chemical substance/The level of expressed mRNA in the absence of chemical substance” value (yeast gene YGL018C) was 1.8 and the “The level of expressed mRNA in the presence of chemical substance/The level of expressed mRNA in the absence of chemical substance” value (yeast gene YGL187C) was 1.6. The “The level of expressed mRNA in the presence of chemical substance/The level of expressed mRNA in the absence of chemical substance” value (yeast gene YGL191W) was 1.4, the “The level of expressed mRNA in the presence of chemical substance/The level of expressed mRNA in the absence of chemical substance” value (yeast gene YGR008C) was 1.7 and the “The level of expressed mRNA in the presence of chemical substance/The level of expressed mRNA in the absence of chemical substance” value (yeast gene YGR028W) was 1.0. For the same compound, the “The level of expressed mRNA in the presence of chemical substance/The level of expressed mRNA in the absence of chemical substance” value (yeast gene YGR062C) was 0.7, the “The level of expressed mRNA in the presence of chemical substance/The level of expressed mRNA in the absence of chemical substance” value (yeast gene YGR076C) was 0.6 and the “The level of expressed mRNA in the presence of chemical substance/The level of expressed mRNA in the absence of chemical substance” value (yeast gene YGR082W) was 2.2. The “The level of expressed mRNA in the presence of chemical substance/The level of expressed mRNA in the absence of chemical substance” value (yeast gene YGR174C) was 0.6, the “The level of expressed mRNA in the presence of chemical substance/The level of expressed mRNA in the absence of chemical substance” value (yeast gene YGR244C) was 1.6 and the “The level of expressed mRNA in the presence of chemical substance/The level of expressed mRNA in the absence of chemical substance” value (yeast gene YHR008C) was 4.8. For the same compound, the “The level of expressed mRNA in the presence of chemical substance/The level of expressed mRNA in the absence of chemical substance” value (yeast gene YIL155C) was 1.4, the “The level of expressed mRNA in the presence of chemical substance/The level of expressed mRNA in the absence of chemical substance” value (yeast gene YJL096W) was 0.8 and the “The level of expressed mRNA in the presence of chemical substance/The level of expressed mRNA in the absence of chemical substance” value (yeast gene YJL102W) was 0.4. The “The level of expressed mRNA in the presence of chemical substance/The level of expressed mRNA in the absence of chemical substance” value (yeast gene YJL133W) was 2.0, the “The level of expressed mRNA in the presence of chemical substance/The level of expressed mRNA in the absence of chemical substance” value (yeast gene YJL166W) was 1.6 and the “The level of expressed mRNA in the presence of chemical substance/The level of expressed mRNA in the absence of chemical substance” value (yeast gene YJL180C) was 1.1. For the same compound, the “The level of expressed mRNA in the presence of chemical substance/The level of expressed mRNA in the absence of chemical substance” value (yeast gene YJR045C) was 3.9 and the “The level of expressed mRNA in the presence of chemical substance/The level of expressed mRNA in the absence of chemical substance” value (yeast gene YJR077C) was 2.0.
